# Source: patent US20020169175A1, “Pharmaceutically acceptable salts of heterocyclic compounds” (DR. REDDY'S LABORATORIES LTD., priority 2001, published 2002)
# Where a name gives a salt, the structure may show the parent alone. Read-outs that look alike come from different tables or passages of the source.
# Experiments:
# [1] = Single dose oral pharmacokinetic studies in male Wistar rats; assay type: in vivo, rat; settings: fasted, suspension in 0.25% sodium CMC; for half-life: read-out: t½ (converted)
# Method: Single Dose Oral Pharmacokinetic Studies
# Male Wistar rats (220-250 gm) were used in the experiments. The animals were maintained under standard laboratory conditions and had free access to feed and water ad libitum. Before experimentation animals were fasted overnight (˜15 h) during which they had free access to water ad libitum.
# An amount equivalent to 30 mg of drug was weighed accurately and transferred into a clean mortar and triturated to obtain a fine powder. To this 0.5 ml of 0.25% sodium carboxy methyl cellulose (sodium CMC) was added to obtain a paste. To the obtained paste remaining 2.5 ml of sodium CMC was added to make up the volume to 3 ml. Based on the animal weight appropriate volume (body weight×3) of the prepared suspension was administered through oral gavage.
# After dosing, at designated time points (0.5, 1, 2, 3, 5, 8, 12 and 24 h) 200 μl of blood was collected from retro orbital plexus into 0.5 ml eppendorff tubes containing EDTA (10 μl of 200 mg/ml solution in Milli Q water). Blood was centrifuged at 12,800 rpm for 5 min and obtained plasma and stored at −20° C. till further analysis.
# 100μl plasma was transferred into a clean and dry centrifuge tube. To this internal standard (10 μl of 100 μg/ml) was added and extracted with 2 ml of extraction recovery solvent. The contents were vortexed for 2 min, followed by centrifugation for 10 min at 2800 rpm. Clear organic layer (2×0.75 ml) was separated and dried under nitrogen gas at 50° C. The residue was reconstituted with 150 μl of mobile phase and vortexed for 20 sec, from this 50 μl was injected onto HPLC column.
# Pharmacokinetic parameters were calculated by non-compartmental model analysis. The peak plasma concentration (Cmax) and the corresponding time (Tmax)were directly obtained from the raw data. The area under the plasma concentration versus time curve up to the last quantifiable time point, AUC(0−t) was obtained by the linear and log-linear trapezoidal summation. The AUC(0−t) extrapolated to infinity (i.e., AUC(0−∞)) by adding the quotient of Clast/Kel, where Clast represents the last measurable time concentration and Kel represents the apparent terminal rate constant. Kel was calculated by the linear regression of the log-transformed concentrations of the drug in the terminal phase. The half-life of the terminal elimination phase was obtained using the relationship t½=0.693/Kel.
# [2] = male, Wistar, rat, plasma, po, 30 mg/kg
# [3] = male, Wistar, rat, plasma, po, 30 mg/kg, read-out: AUC (0-t)
# [4] = male, Wistar, rat, plasma, po, 30 mg/kg, read-out: Cmax
# [5] = male, Wistar, rat, plasma, po, 30 mg/kg, read-out: Tmax
compound,measurement,setting,value
"CCO[C@@H](Cc1ccc(OCCn2c(CC)nc3ccccc3c2=O)cc1)C(=O)O (as salt: salt) [Example 4, (−)-3-[4-[2-(2-Ethyl-4-oxo-3,4-dihydroquinazolin-3-yl)ethoxy]phenyl]-2ethoxypropanoic acid lysine salt]",melting point,,152 to 155 °C
"CCO[C@@H](Cc1ccc(OCCn2c(CC)nc3ccccc3c2=O)cc1)C(=O)O (as salt: salt) [Example 7, (−)-3-[4-[2-(2-Ethyl-4-oxo-3,4-dihydroquinazolin-3-yl)ethoxy]phenyl]-2-ethoxypropanoic acid N-methyl glucamine salt]",melting point,,114 to 116 °C
"CCO[C@@H](Cc1ccc(OCCn2c(CC)nc3ccccc3c2=O)cc1)C(=O)O (as salt: salt) [Example 10, (−)-3-[4-[2-(2-Ethyl-4-oxo-3,4-dihydroquinazolin-3-yl)ethoxy]phenyl]-2-ethoxypropanoic acid magnesium salt]",melting point,,> 250 °C
"CCO[C@@H](Cc1ccc(OCCn2c(CC)nc3ccccc3c2=O)cc1)C(=O)O (as salt: salt) [Example 11, (−)-3-[4-[2-(2-Ethyl-4-oxo-3,4-dihydroquinazolin-3-yl)ethoxy]phenyl]-2-ethoxypropanoic acid arginine salt]",melting point,,216 to 220 °C
"CCCc1nn(C)c2c(=O)n(CCOc3ccc(C[C@H](OCC)C(=O)O)cc3)c(C)nc12 (as salt: salt) [Example 24, 3-[4-[2-(1,5-Dimethyl-7-oxo-3-propyl-6,7-dihydro-1H-pyrazolo[4,3-d]pyrimidin-6-yl)ethoxy]phenyl]-2-ethoxypropionic acid aminoguanidine hydrogen carbonate salt]",melting point,,110 to 112 °C
"CCCc1nn(C)c2c(=O)n(CCOc3ccc(C[C@H](OCC)C(=O)O)cc3)c(CC)nc12 (as salt: salt) [Example 36, (−)-3-[4-[2-(1-Methyl-5-ethyl-7-oxo-3-propyl-6,7-dihydro-1H-pyrazolo[4,3-d]pyrimidin-6-yl)ethoxy]phenyl]-2-ethoxypropionic acid arginine salt]",melting point,,235 °C
"CCCc1nn(C)c2c(=O)n(CCOc3ccc(C[C@H](OCC)C(=O)O)cc3)c(CC)nc12 (as salt: salt) [Example 39, (−)-3-[4-[2-(1-Methyl-5-ethyl-7-oxo-3-propyl-6,7-dihydro-1H-pyrazolo[4,3-d]pyrimidin-6-yl)ethoxy]phenyl]-2-ethoxypropionic acid aminoguanidine hydrogen carbonate salt]",melting point,,130 °C
"CCCc1nn(C)c2c(=O)n(CCOc3ccc(C[C@H](OCC)C(=O)O)cc3)c(CC)nc12 (as salt: salt) [Example 41, (−)-3-[4-[2-(1-Methyl-5-ethyl-7-oxo-3-propyl-6,7-dihydro-1H-pyrazolo[4,3-d]pyrimidin-6-yl)ethoxy]phenyl]-2-ethoxypropionic acid dicyclohexylamine salt]",melting point,,138 to 140 °C
"CCCc1nn(C)c2c(=O)n(CCOc3ccc(C[C@H](OCC)C(=O)O)cc3)c(CC)nc12 (as salt: salt) [Example 44, (−)-3-[4-[2-(1-Methyl-5-ethyl-7-oxo-3-propyl-6,7-dihydro-1H-pyrazolo[4,3-d]pyrimidin-6-yl)ethoxy]phenyl]-2-ethoxypropionic acid metformin salt]",melting point,,118 °C
"CCCc1nn(C)c2c(=O)n(CCOc3ccc(C[C@H](OCC)C(=O)O)cc3)c(CC)nc12 (as salt: tromethamine) [Example 40, (−)-3-[4-[2-(1-Methyl-5-ethyl-7-oxo-3-propyl-6,7-dihydro-1H-pyrazolo[4,3-d]pyrimidin-6-yl)ethoxy]phenyl]-2-ethoxypropionic acid tromethamine salt]",melting point,,116 to 118 °C
CCCc1nn(C)c2c(=O)n(CCOc3ccc(C[C@H](OCC)C(=O)[O-])cc3)c(CC)nc12.[K+] (stereo in doubt),melting point,,164 °C
CCCc1nn(C)c2c(=O)n(CCOc3ccc(C[C@H](OCC)C(=O)[O-])cc3)c(CC)nc12.[Li+] (stereo in doubt),melting point,,215 to 218 °C
CCO[C@@H](Cc1ccc(OCCn2c(CC)nc3ccccc3c2=O)cc1)C(=O)[O-].[Li+] (stereo in doubt),melting point,,245 to 247 °C
"CCO[C@@H](Cc1ccc(OCCn2c(CC)nc3ccccc3c2=O)cc1)C(=O)O [Example 4, (−)-3-[4-[2-(2-Ethyl-4-oxo-3,4-dihydroquinazolin-3-yl)ethoxy]phenyl]-2ethoxypropanoic acid lysine salt]",Kel,[1],0.31 h⁻¹
same,AUC(0-inf),[1]; [2],38400 ng·h/mL
same,AUC(0-t),[1]; [3],40600 ng·h/mL
same,Cmax,[1]; [4],38700 ng/mL
same,Tmax,[1]; [5],0.5 h
same,half-life,[1]; [2],1.97 h
"CCO[C@@H](Cc1ccc(OCCn2c(CC)nc3ccccc3c2=O)cc1)C(=O)O [Example 7, (−)-3-[4-[2-(2-Ethyl-4-oxo-3,4-dihydroquinazolin-3-yl)ethoxy]phenyl]-2-ethoxypropanoic acid N-methyl glucamine salt]",AUC (0-∞),[1],51430 ng·h/mL
same,AUC(0-t),[1],51650 ng·h/mL
same,Cmax,[1],40250 ng/mL
same,Kel,[1],0.38 h⁻¹
same,Tmax,[1],0.90 h
same,t½,[1],1.91 h
"CCO[C@@H](Cc1ccc(OCCn2c(CC)nc3ccccc3c2=O)cc1)C(=O)O [Example 10, (−)-3-[4-[2-(2-Ethyl-4-oxo-3,4-dihydroquinazolin-3-yl)ethoxy]phenyl]-2-ethoxypropanoic acid magnesium salt]",AUC (0-∞),[1],74070 ng·h/mL
same,AUC(0-t),[1],75890 ng·h/mL
same,Cmax,[1],54210 ng/mL
same,Kel,[1],0.34 h⁻¹
same,Tmax,[1],0.50 h
same,t½,[1],2.16 h
"CCCc1nn(C)c2c(=O)n(CCOc3ccc(C[C@H](OCC)C(=O)[O-])cc3)c(CC)nc12.[Na+] [Example 35, (−)-3-[4-[2-(1-Methyl-5-ethyl-7-oxo-3-propyl-6,7-dihydro-1H-pyrazolo[4,3-d]pyrimidin-6-yl)ethoxy]phenyl]-2-ethoxypropionic acid sodium salt]",melting point,,112 to 114 °C
"CCCc1nn(C)c2c(=O)n(CCOc3ccc(C[C@H](OCC)C(=O)O)cc3)c(CC)nc12 [Example 40, (−)-3-[4-[2-(1-Methyl-5-ethyl-7-oxo-3-propyl-6,7-dihydro-1H-pyrazolo[4,3-d]pyrimidin-6-yl)ethoxy]phenyl]-2-ethoxypropionic acid tromethamine salt]",Kel,[1],0.60 h⁻¹
same,Tmax,[1],0.75 h
same,AUC(0-inf),[1]; [2],78600 ng·h/mL
same,AUC(0-t),[1]; [3],77800 ng·h/mL
same,Cmax,[1]; [4],34200 ng/mL
same,half-life,[1]; [2],1.2 h
"CCO[C@@H](Cc1ccc(OCCn2c(CC)nc(-c3ccccc3)cc2=O)cc1)C(=O)[O-].[K+] [Example 46, (−)2-Ethoxy-3-[4-[2-[2-ethyl-6-oxo-4-phenyl-1,6-dihydropyrimidin-1-yl]ethoxy]phenyl]propanoic acid potassium salt]",Kel,[1],0.32 h⁻¹
same,AUC(0-inf),[1]; [2],62900 ng·h/mL
same,AUC(0-t),[1]; [3],61200 ng·h/mL
same,Cmax,[1]; [4],17700 ng/mL
same,Tmax,[1]; [5],1.33 h
same,half-life,[1]; [2],2.19 h
"CCO[C@@H](Cc1ccc(OCCn2c(CC)nc(-c3ccccc3)cc2=O)cc1)C(=O)[O-].[Na+] [Example 47, (−)2-Ethoxy-3-[4-[2-[2-ethyl-6-oxo-4-phenyl-1,6-dihydropyrimidin-1-yl]ethoxy]phenyl]propanoic acid sodium salt]",Kel,[1],0.34 h⁻¹
same,AUC(0-inf),[1]; [2],83300 ng·h/mL
same,AUC(0-t),[1]; [3],82200 ng·h/mL
same,Cmax,[1]; [4],39500 ng/mL
same,Tmax,[1]; [5],0.5 h
same,half-life,[1]; [2],2.07 h
"CCO[C@@H](Cc1ccc(OCCn2c(CC)nc(-c3ccccc3)cc2=O)cc1)C(=O)O [Example 48, (−)2-Ethoxy-3-[4-[2-[2-ethyl-6-oxo-4-phenyl-1,6-dihydropyrimidin-1-yl]ethoxy]phenyl]propanoic acid L-arginine salt]",Kel,[1],0.29 h⁻¹
same,AUC(0-inf),[1]; [2],92600 ng·h/mL
same,AUC(0-t),[1]; [3],90100 ng·h/mL
same,Cmax,[1]; [4],50400 ng/mL
same,Tmax,[1]; [5],0.5 h
same,half-life,[1]; [2],2.18 h
